Reference: ChEMBL document CHEMBL1131772, “Synthesis of 8-Oxa analogues of norcocaine endowed with interesting cocaine-like activity” (Bioorg Med Chem Lett, 1999)

What was measured:
[1] = molecular target: T1, Sodium-dependent dopamine transporter (Rattus norvegicus, UniProt P23977); assay: Inhibition of high affinity uptake of [3H]dopamine into striatal nerve endings (synaptosomes); format: subcellular, Brain
[2] = molecular target: T1, Sodium-dependent dopamine transporter; assay: Binding affinity towards dopamine transporter using [3H]- mazindol as radioligand in rat striatal membranes; format: cell membranes, Striatum, Membrane

T1 sequence (P23977 whole entry): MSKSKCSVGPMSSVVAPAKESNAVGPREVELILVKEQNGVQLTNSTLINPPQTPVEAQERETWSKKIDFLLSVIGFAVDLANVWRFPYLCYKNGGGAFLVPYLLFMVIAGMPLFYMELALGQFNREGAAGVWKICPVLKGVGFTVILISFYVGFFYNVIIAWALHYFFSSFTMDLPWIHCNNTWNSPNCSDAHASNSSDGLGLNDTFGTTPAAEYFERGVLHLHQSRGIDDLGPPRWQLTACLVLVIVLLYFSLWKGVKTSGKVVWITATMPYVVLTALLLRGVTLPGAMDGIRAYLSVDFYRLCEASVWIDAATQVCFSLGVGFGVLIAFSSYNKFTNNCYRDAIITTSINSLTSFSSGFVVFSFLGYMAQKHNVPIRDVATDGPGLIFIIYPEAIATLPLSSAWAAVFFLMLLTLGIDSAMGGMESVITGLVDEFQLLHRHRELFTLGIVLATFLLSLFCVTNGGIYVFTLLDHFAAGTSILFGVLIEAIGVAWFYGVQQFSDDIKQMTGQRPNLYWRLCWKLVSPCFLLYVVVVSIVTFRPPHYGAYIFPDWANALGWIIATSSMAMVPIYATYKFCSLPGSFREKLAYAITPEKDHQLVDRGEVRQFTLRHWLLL

| SMILES | Ki [1] | Ki [2] |
| --- | --- | --- |
| COC(=O)[C@H]1C2CCC(C[C@@H]1OC(=O)c1ccccc1)O2 (stereo in doubt; (+)) | 47.7 µM | 29.4 µM |
| COC(=O)[C@@H]1C2CCC(C[C@@H]1OC(=O)c1ccccc1)O2 (stereo in doubt; (+)) | 9.4 µM | 3.1 µM |
| COC(=O)[C@H]1C2CCC(C[C@H]1OC(=O)c1ccccc1)O2 (some centres not stated) | 35 µM | 38 µM |
| COC(=O)[C@H]1C2CCC(C[C@@H]1OC(=O)c1ccccc1)O2 (stereo in doubt; (-)) | 6 µM | 4.7 µM |
| COC(=O)[C@@H]1C2CCC(C[C@@H]1OC(=O)c1ccccc1)O2 (stereo in doubt; (-)) | 8.5 µM | 4.2 µM |
| COC(=O)[C@@H]1C2CCC(C[C@H]1OC(=O)c1ccccc1)O2 (some centres not stated) | 23 µM | 34 µM |
